Experiments:
[1] = IVIS fluorescence imaging biodistribution after oral administration; type: in vivo, mice; details: 5 mg/kg oral, IVIS at 1, 6 and 24 hours
Protocol: After GeTe-PVP NSs (5 mg/kg, 100 μl) or an ICG solution (5 mg/kg, 200 μl) were orally administered, the mice were subjected to laparotomy at 1, 6, and 24 hours, and the biodistribution of GeTe-PVP NSs and the ICG solution was photographed with an in vivo imaging system (IVIS). Furthermore, the stomach, intestine, liver, lungs, pancreas, heart, and kidneys were removed at each time to confirm their biodistribution by fluorescence imaging with IVIS and quantify the amounts of GeTe-PVP NSs and ICG accumulated in each organ by FL intensity.

[2] = test system: DSS-induced colitis model; experiment: DSS-induced inflammatory bowel disease (colitis) model; type: in vivo, C57BL/6 mice
Protocol: 7- to 8-week-old male C57BL/6 mice (Orient Bio Inc.; Seongnam, Korea) were used for the experiments. Colitis was induced by allowing an acute inflammatory bowel disease model to ingest drinking water to which 2% dextran sodium sulfate (DSS; MP Biochemical, Irvine, Ca, USA) was added for 7 days. A normal control group was allowed to ingest the same amount of water for the same time (FIG. 19).
The experimental groups were classified into the following four groups (Table 1): a normal control group (Group 1, n=8), a group in which colitis is induced by DSS (Group 2, n=8), a group in which sulfasalazine (SAZ), which is a common therapeutic agent, was administered to a DSS-induced colitis model (Group 3, n=8, SAZ=200 mg/kg/day), and a group in which GeTe-PVP NSs were administered to a DSS-induced colitis model (Group 4, n=8, GeTe-PVP NS=5 mg/kg/day).
Body weight changes and the disease activity index (DAI) of mice were confirmed every day for 7 days. Each score of weight loss index (0 to 4; FIG. 20A), rectal bleeding observed with the naked eye in the stool or anus (0 to 3; FIG. 20C), and stool consistency (0 to 3; FIG. 20B) is summed to evaluate the disease activity index on a 10-point scale (FIG. 20D). [Stevceva L, Pavli P, Husband A, Ramsay A, Doe WF. Dextran sulphate sodium-induced colitis is ameliorated in interleukin 4 deficient mice. Genes Immun 2001; 2:309-316.] […]

Compound	time after administration until which a large amount remained in the intestine (FL intensity) [1] [h]	disease activity index (DAI) compared to DSS group (Group 2) ([2]; DSS colitis mice, SAZ 200 mg/kg/day, GeTe-PVP NS 5 mg/kg/day)	inflammatory findings (H&E, PAS staining) ([2]; proximal and distal regions of excised intestine)
CC1(C)C(/C=C/C=C/C=C/C=C2\N(CCCCS(=O)(=O)O)c3ccc4ccccc4c3C2(C)C)=[N+](CCCCS(=O)(=O)[O-])c2ccc3ccccc3c21 [ICG solution, Indocyanine green]	≤ 1		
O=C(O)c1cc(/N=N/c2ccc(S(=O)(=O)Nc3ccccn3)cc2)ccc1O [sulfasalazine]		lower DAI compared to Group 2	many inflammatory findings were not found
